Experimental data as given in article PMC12442099 (ACS Infectious Diseases, 2025).

System: E. coli MC4100 FQR and GEPR mutants
Assay: Growth kinetics on resistant mutants
Assay type: cell-based
Details: EC80 concentrations, Fig. S3
Procedure: ONC of E. coli MC4100 were diluted to OD600 = 0.07 in 20 mL LB supplemented with an initial concentration of 0.4 μM lomefloxacin, 8 μM gepotidacin, or no antibiotic. After overnight incubation, part of the culture was plated onto LB agar plates with the same concentration of lomefloxacin or gepotidacin to isolate resistant colonies. OD600 of the remaining culture was determined and diluted to OD600 = 0.1 into fresh medium with a 1.5–2-fold increased concentration of lomefloxacin or gepotidacin. […] Resistant colonies were sent for Whole Genome Sequencing using short Illumina reads at MicrobesNG (Birmingham, UK). Sequencing data was analyzed using CLC Genomics Workbench (Qiagen).
Figure S3: Growth kinetics of lomefloxacin, gepotidacin, A2 and B1 on WT, FQR and GEPR mutants. E. coli
TOP10F’ cells were treated with EC80 concentrations of compounds and growth (OD600) recorded over time.
Graphs indicate % growth compared to DMSO control. Error bars indicate standard deviations of triplicates. […]

Compound | growth inhibition / susceptibility of FQR (gyrA S83L) mutant | growth inhibition / susceptibility of GEPR mutant
CC(C)(C)n1cc(C(=O)O)c(=O)c2cc(F)c(N3CC4CC3CN4)nc21 (stereo not shown) [A2] | showed cross-resistance | less susceptible
O=C1COc2ccc(CNC3CCN(CC4Cc5c(F)cc(F)c6ccc(=O)n4c56)CC3)nc2N1 (stereo not shown) [B1] | remained susceptible to growth inhibition | exhibited cross-resistance
